According to patent US8916610B2, “Acid addition salt of a nortriptyline-GABA conjugate and a process of preparing same” (Ramot at Tel-Aviv University Ltd., priority 2010, dated 2014):
Like-named read-outs stand apart in the source and are kept apart here.

Key:
[1] = Experimental: Surface area data were collected using nitrogen absorption on a BET Micrometics Gemini V (11-point BET analysis) analyzer. The samples were outgassed at 25° C. under vacuum for at least 2 hours. SRM 1899 and SRM 1900 were used as the calibration standards.
[2] = remark: listed apart in the source
Source text: Particle size data was acquired using a Malvern Instruments MS2000 equipped with a Hydro2000μP dispersion unit. Data was collected and analyzed with Mastersizer 2000v.5.1 software, using volume based measurements. NIST traceable glass beads were used as the reference standard.
The final method conditions selected for determining the particle size of BL-1021 fumarate salts were as follows:
Dispersant: silicone oil;
Dispersant refractive index: 1.403;
The measurement of particle size of all lots was performed using the same method conditions (silicone oil as a dispersing medium, a pump speed of 1750 rpm).

[3] = remark: listed apart in the source
Source text: Samples were submitted to Particle Technology Labs (PTL), Downers Grove, Ill., for bulk and tapped density analyses.

[4] = batches after milling, listed as CC-2190.0-20.1
[5] = batches after milling, listed as CC-2190.0-21.1
[6] = batches after milling, listed as CC-2190.0-23.1
[7] = batches after milling, listed as CC-2562.0-01.1
[8] = silicone oil dispersing medium, pump speed 1750 rpm, volume based, text b315 speaks of μm
[9] = batches before and after milling

Structure (SMILES): CN(CCC=C1c2ccccc2CCc2ccccc21)C(=O)CCCN.O=C(O)/C=C/C(=O)O [BL-1021 fumarate salt, nortriptyline-4-aminobutyrate fumarate]
- BET surface area, Results ([1]; batch before milling): 6.58 m^2/g
- BET surface area, Results [1, 4]: 8.43 m^2/g
- BET surface area, Results [1, 5]: 10.84 m^2/g
- BET surface area, Results [1, 6]: 11.84 m^2/g
- BET surface area, Results [1, 7]: 7.45 m^2/g
- particle size distribution d10 [2, 8]: 7.0
- particle size distribution d50 [2, 8]: 93.9
- particle size distribution d90 [2, 8]: 220.8
- D90 (as stated in text, FIG. 6) ([2]; silicone oil, 1750 rpm): 200±25%
- particle size up to (upper end of bimodal distribution, FIG. 6) ([2]; silicone oil, 1750 rpm, fine tail below 1 μm): ≤ 400 μm
- Bulk density ([3]; batch before milling): 0.29 g/mL
- Tapped density ([3]; batch before milling): 0.42 g/mL
- Bulk density [3, 4]: 0.22 g/mL
- Tapped density [3, 4]: 0.35 g/mL
- Bulk density [3, 5]: 0.18 g/mL
- Tapped density [3, 5]: 0.31 g/mL
- Bulk density [3, 6]: 0.25 g/mL
- Tapped density [3, 6]: 0.39 g/mL
- Bulk density [3, 7]: 0.19 g/mL
- Tapped density [3, 7]: 0.36 g/mL
- bulk density (range over batches) [3, 9]: 0.18-0.29 gram/ml
- tapped density (range over batches) [3, 9]: 0.31-0.42 gram/ml
